The record followed here is ChEMBL document CHEMBL4138296, “Nonacidic Chemotype Possessing N-Acylated Piperidine Moiety as Potent Farnesoid X Receptor (FXR) Antagonists” (ACS Med Chem Lett, 2018).

Activity calls are given as the source filed them. The rule behind the calls is not given here.

In assay [1] the target is T1, Vitamin D3 receptor (Homo sapiens) (UniProt P11473).
T1 sequence (whole entry): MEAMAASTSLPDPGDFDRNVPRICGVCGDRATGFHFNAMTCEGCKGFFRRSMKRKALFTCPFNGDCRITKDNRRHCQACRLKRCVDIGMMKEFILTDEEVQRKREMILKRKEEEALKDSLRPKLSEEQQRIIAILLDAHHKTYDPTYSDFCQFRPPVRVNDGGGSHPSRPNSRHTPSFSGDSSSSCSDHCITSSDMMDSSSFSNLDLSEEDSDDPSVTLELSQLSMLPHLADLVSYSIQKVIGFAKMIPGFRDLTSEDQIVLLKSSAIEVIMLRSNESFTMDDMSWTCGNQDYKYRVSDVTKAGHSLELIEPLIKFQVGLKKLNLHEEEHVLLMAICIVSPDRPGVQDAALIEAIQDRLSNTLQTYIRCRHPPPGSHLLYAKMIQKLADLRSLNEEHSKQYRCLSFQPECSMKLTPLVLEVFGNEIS
In words: Antagonist activity at human VDR expressed in HEK293T cells assessed as inhibition of 1,25(OH)2VD3-induced response at 1 uM after 24 hrs by luciferase reporter gene assay. Type of assay: cell-based. (In general: Reporter assays use an easily measured gene product as a stand-in for the process of interest.)

For assay [2], the target named is T2, Oxysterols receptor LXR-beta (Homo sapiens) (UniProt P55055).
T2 sequence (whole entry): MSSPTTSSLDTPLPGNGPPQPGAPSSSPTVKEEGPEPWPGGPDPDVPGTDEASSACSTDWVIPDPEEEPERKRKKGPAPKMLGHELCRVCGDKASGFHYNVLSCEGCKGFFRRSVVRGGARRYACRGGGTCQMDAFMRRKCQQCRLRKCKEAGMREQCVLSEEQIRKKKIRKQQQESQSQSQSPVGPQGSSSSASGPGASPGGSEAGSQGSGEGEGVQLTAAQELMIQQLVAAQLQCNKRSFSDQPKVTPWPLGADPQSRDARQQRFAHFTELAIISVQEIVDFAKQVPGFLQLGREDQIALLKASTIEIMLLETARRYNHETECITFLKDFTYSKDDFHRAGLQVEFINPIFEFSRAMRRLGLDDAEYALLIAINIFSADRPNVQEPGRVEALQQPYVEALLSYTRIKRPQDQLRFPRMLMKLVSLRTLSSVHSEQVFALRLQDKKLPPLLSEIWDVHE
As to the kind of experiment: Antagonist activity at LXRbeta (unknown origin) assessed as inhibition of TO901317-induced response at 1 uM by luciferase reporter gene assay.

With `Cc1ccc2nc([C@H](CC3CCN(C(=O)C(C)C)CC3)N3C(=O)CN(c4ccc(Oc5ccccc5)cc4)C3=O)n(C)c2c1`, the inhibition entry in assay [1] and in assay [2] was “inactive” in each case.
